Experiments:
[1] = target: bee venom phospholipase A2 (Apis mellifera, UniProt P00630); test: biochemical
[2] = tested on: phosphoinositide-specific phospholipase C; conditions: reported for manoalide, Bennett et al; cited from earlier work
[3] = prior art; cited from earlier work

Chain of bee venom phospholipase A2 (P00630 34-167 limits assumed): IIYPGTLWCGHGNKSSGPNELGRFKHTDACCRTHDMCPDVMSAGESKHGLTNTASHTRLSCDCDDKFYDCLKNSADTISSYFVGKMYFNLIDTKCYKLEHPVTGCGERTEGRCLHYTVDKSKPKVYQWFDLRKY

Row | SMILES | IC50 [1] | inhibition of phosphoinositide-specific phospholipase C [2] | biological properties [3]
1 | CC1=C(CC/C(C)=C/CCC2=CCC(C3=CC(=O)OC3O)OC2O)C(C)(C)CCC1 (stereo not drawn) [Compound 1] | 30 nM | inhibition | anti-inflammatory,immunosuppressive and analgesic properties
2 | CC1=C(CC/C(C)=C/CCC(C=O)=CCC(O)C2=CC(=O)OC2O)C(C)(C)CCC1 (stereo not drawn) [Compound 2] | – | – | anti-inflammatory activity
3 | CC1=C(CC/C(C)=C/CCC(C=O)=CC=CC2=CC(=O)OC2O)C(C)(C)CCC1 (stereo not drawn) [Compound 3] | – | – | anti-inflammatory activity
4 | CCCCCCCCCCCCNS(=O)(=O)/C=C/C1=CC(=O)OC1O (stereo not drawn) [Compound 4, 4-[2-(N-Dodecylsulfonamido)ethenyl]-5-hydroxy-2(5H)-furanone] | 40 nM | – | –
5 | CCCCCCCCCCCCNS(=O)(=O)CC(O)C1=CC(=O)OC1O (stereo not drawn) [Compound 5, 4-[1-Hydroxy-2-(N-dodecylsulfonamido)]ethyl-5-hydroxy-2(5H)-furanone] | 100 nM | – | –
6 | CCCCCCCCCCCCNS(=O)(=O)CC(OC(C)=O)C1=CC(=O)OC1O (stereo not drawn) [Compound 6, 4-[1-Acetoxy-2-(N-dodecylsulfonamido)]ethyl-5-hydroxy-2(5H)-furanone] | 50 nM | – | –
7 | CCCCCCCCCCCCNS(=O)(=O)CC(OC(=O)CCCC(=O)O)C1=CC(=O)OC1O (stereo not drawn) [Compound 7, 4-[1-Gluraroyloxy-2-(N-dodecylsulfonamido)]ethyl-5-hydroxy-2(5H)-furanone] | 50 nM | – | –

— patent publication US5081261A, “4-(1-hydroxy-2-N-substituted sulfonamido) ethyl-5-hydroxy-2(5H)-furanones and 4-(N-substituted sulfonamido)-2-ethenyl-5-hydroxy-2(5H)-furanones as anti-inflammatory agents” (Allergan, Inc., priority 1990, dated 1992)
